Source: a melting point compilation (Tetko et al.; mined from patent text by program, amines drawn as free bases though some values may be those of a salt)

| melting point [°C] | Structure (SMILES) |
| --- | --- |
| 130 to 134 | O=C1c2ccccc2C(=O)N1Cn1nnn(-c2ccccc2)c1=S |
| 231 to 234 | CC(C)(C)c1cc(-c2cncc(C3SC(N4CCOCC4)=NC3=O)c2)ccc1O (stereo unspecified) |
| 142 to 143 | Cc1ccc(-c2cccc(/C=C/C(=O)Nc3ccc(CN4CCCCC4CCO)cc3)c2)cc1 (stereo unspecified) |
| 159 to 160 | Cc1ncccc1Oc1ccc(NC(=O)N2CCc3c(n(C)c4ccccc34)CC2)cn1 |
| 91 to 95 | CC(=O)OCn1cc(C#N)c(-c2ccccc2Cl)c1 |
| 90 to 92 | O=C1c2ccccc2C(=O)N1CCCCCCc1cccnc1 |
| 187 to 189 | CNC(=O)[C@@H](NC(=O)Nc1n[nH]c(=S)s1)C(C)OCc1ccccc1 (stereo partly specified) |
| 143 to 147 | Cc1cccc(C=NNc2nc(OCCc3ccccn3)nc(N3CCOCC3)n2)c1 |
| 172 to 174 | N#CN1CCN(c2nn(-c3ccccc3)c3cc(F)ccc23)CC1 |
| 201 to 204 | CC12CCC(=O)C=C1CCC1C2CCC2(C)C(n3cnc4ccccc43)=CCC12 (stereo unspecified) |
| 180 to 181 | CSC(=NC#N)NCCSc1ncccc1C(=O)c1ccccc1 |
| 134 to 135 | COc1cccc(C(O)(Cc2ccncc2)c2cccc(OC)c2)c1 |
| 113 to 114 | COCCOc1cc(N(C)S(=O)(=O)c2cccs2)c2[nH]c(C3=NCC(CC(=O)O)S3)cc2c1 (stereo unspecified) |
| 210 to 211 | COC(=O)c1c(C#N)ccc(NC(=NC#N)Nc2ccccc2Br)c1O |
| 204 to 207 | Cc1nnc2ccc(-c3cccc(N4CCCCC4=O)c3)nn12 |
| 189 to 191 | C[Si](C)(C)c1ccc2cc(C(=O)O)n(Cc3cccc(F)c3)c2c1 |
| 156 to 158 | Cc1cc(Cl)ccc1OCC(=O)N1Cc2ccc(C(=O)C(Cl)(Cl)Cl)n2Cc2ccccc21 |
| 54 to 55 | Cc1ccc(-c2cnccn2)cc1 |
| 171 | CCc1nc(C)[nH]c1Sc1ccccc1 |
| 285 to 288 | CCCc1nn(C)c2c(=O)[nH]c(-c3cc(C(=O)O)ccc3OCC)nc12 |
| 161 to 163 | O=C1C(c2nc3c(cc2O)OCO3)c2ccccc2N1Cc1ccc(C(F)(F)F)o1 (stereo unspecified) |
| 184 to 185 | Cc1nc2cccc3n(CCCNS(C)(=O)=O)c(=O)c1n23 |
| 230 to 235 | NC1(c2ccccc2)C(=O)Nc2ccc(Cl)cc21 (stereo unspecified) |
| 168 | CCOC(=O)CC1(Cc2ccncc2)C(=O)N(N2CCOCC2)c2ccccc21 (stereo unspecified) |
| 97 to 98 | CCN(CC)C(=O)O[C@@H]1[C@@H](c2ccccc2)Nc2c(ccn3c(C)c(C)nc23)[C@H]1OC |

| melting point [°C] | Structure (SMILES) |
| --- | --- |
| 207 to 208 | O=C(NC1CCN(CCCOc2ccccc2C(=O)O)CC1)c1ccccc1 |
| 190 to 192 | CSC1C(=O)Nc2c(Nc3ccc(Cl)cc3)cccc21 (stereo unspecified) |
| 130 to 133 | Cc1cccc(-c2ccc(NC(=O)Nc3ccc(Oc4cc(N)ncn4)cc3)cc2C(F)(F)F)n1 |
| 180 to 183 | O=C(O)COc1ccc2c(=O)c3c(F)cccc3oc2c1 |
| 147 to 148 | Cc1sc(-c2ccccc2)nc1COc1cc(COc2ccccc2CC(=O)O)on1 |
| 198 to 200 | CN1C(=O)CCC(C)(C)c2cc(Nc3ncc(Cl)c(Nc4ccccc4S(=O)(=O)N(C)C)n3)ccc21 |
| > 260 | Cn1ccc2c(-n3cc(C(=O)NC(=N)N)c4cccnc43)ncnc21 |
| 127 | CC(C#N)N1CCC(C(=O)c2ccc(F)cc2)CC1 (stereo unspecified) |
| 242 to 245 | Cc1nc2cnc3ccccc3c2[nH]1 |
| 133 to 134 | OCc1cn(-c2ccc(F)c(C(F)F)c2)cn1 |
| 95.5 to 97.2 | CCOC(=O)Cc1csc(-c2cccc(O)c2)n1 |
| 135 to 136 | NC1=Nc2ccccc2CC1 |
| 182 to 183 | CN1CCN(C2=Nc3ccccc3N3CCc4cc(Cl)cc2c43)CC1 |
| 210 to 212 | Cc1nc2c3c(ccn2c1C)C(O)CC(c1ccccc1)N3 (stereo unspecified) |
| 236 | Cc1cc(-c2cc(C(F)F)n3ncc(-c4ccncc4)c3n2)ccc1C(F)(F)F |
| 122 | Cc1cccc(C2=CCN(c3ccc(Cl)nn3)CC2)c1 |
| 150 | COCn1ccnc1C(O)(c1ccccc1)c1ccc(F)cc1 (stereo unspecified) |
| 147 to 149 | Cc1ccc2c(c1)Sc1ccc(F)cc1C(N1CCN(CCN3CCOC3=O)CC1)C2 (stereo unspecified) |
| 223 to 225 | COc1ccc2[nH]cc(S(=O)(=O)c3ccccc3)c2n1 |
| 74 to 75 | CN(CCOc1ccc(C=O)cc1)c1ncccn1 |
| 145 | CCCCOc1ccc(C(=O)Nc2ccc3cc(CN4CCN(C)CC4)cnc3c2C)cc1 |
| 235 | O=C1c2cccc3cccc(c23)C(=O)N1CCN1CCC(c2c[nH]c3ccc(F)cc23)CC1 |
| 112 to 113 | Cc1ccc(C2=NN(c3ccccc3)C(=O)C2)cc1 |
| 205 to 207 | CNC(=O)Nc1cc(CNc2ncccc2C(=O)Nc2ccc3cn(C)nc3c2)ccn1 |

More lines, now with the values behind:

| Structure (SMILES) | melting point [°C] |
| --- | --- |
| CCOC(=O)c1csc(Br)n1 | 66 to 68 |
| CNC(=O)c1ccc(-c2cccc(C3=NC(C)(C)Cc4cc(OC)c5c(c43)CC(C)(C)O5)c2)cc1 | 242 to 244 |
| COC(=O)c1cc(CCN(C)CCCC(C#N)(c2ccc(OC)c(OC)c2)C(C)C)ccc1OC (stereo unspecified) | 76 to 81 |
| CSCC(=O)[C@H](Cc1cccs1)NC(=O)[C@H](CC(C)C)NC(=O)OCc1ccccc1 | 93 to 97 |
| CC(=O)Nc1ccc2oc(C(=O)O)cc2c1 | > 300 |
| COC(=O)c1nnn(C)c1C(=O)OC | 63 to 64 |
| CCN(Cc1ccccc1)C(=O)Cc1c(-c2ccc(Cl)cc2)nc2cc(C)ccn12 | 192 to 193 |
| c1nnnn1C1CN2CCC1CC2 (stereo unspecified) | 83 to 84 |
| N#Cc1nn(-c2c(Cl)cc(C(F)(F)F)cc2Cl)c(N)c1SC(F)(F)C(F)(F)F | 134 to 136 |
| CP(C)(=O)CCCOC(=O)c1cccnc1Nc1cccc(C(F)(F)F)c1 | 165 |
| NCC1Cc2cc(F)cc(-c3ccc(Cl)cc3Cl)c2O1 (stereo unspecified) | 107 to 109 |
| Cn1ncc2c1CCC(=CO)C2=O | 93 to 95 |
| Cc1ccc([N+](=O)[O-])cc1/C=C/c1nc(C(C)C)cs1 | 87 to 88 |
| N=C(NC1CC1)NN1CCc2cc(Cl)ccc21 | 146 to 149 |
| CNC1CCc2[nH]c3ccc(OCc4ccccc4)cc3c2C1 (stereo unspecified) | 120 to 121 |
| Cc1cc(CN2N=C(C(F)(F)C(F)(F)F)NC2(O)C(C)(C)C)ccc1[N+](=O)[O-] (stereo unspecified) | 125 to 128 |
| CCOC(=O)c1cc(=O)c2cc(OC)cc(Br)c2o1 | 159 to 161 |
| CCc1nc(O)c(I)c(Cl)n1 | > 230 |
| C=CCCCCS(=O)(=O)C[C@@H](C)C(=O)O | 51 to 54 |
| CNC(=O)Nc1ccsc1C(=O)OC | 141 to 142 |
| Oc1ccc(-c2ccc(O)cc2I)c(I)c1 | 171 to 172 |
| O=C(O)Cc1ccc(NC(=O)C=C2CC(C(=O)O)Nc3cc(Cl)cc(Cl)c32)cc1 (racemic) | > 220 |
| COc1ccccc1N1CCN(CCCNC(=O)NC23CC4CC(CC(C4)C2)C3)CC1 | 181 to 182 |
| CC1(C)CCC(C)(C)c2cc(-c3csc(C=CC(=O)O)c3)ccc21 | 182 to 185 |
| O=C(CCCCCCCCC1CO1)OCCOC(=O)CCCCCCCCC1CO1 (stereo unspecified) | 39 to 40 |
| O=C(Cn1nnnc1-c1ccsc1)OCCCCCO | 39 to 42 |

| Structure (SMILES) | melting point [°C] |
| --- | --- |
| CN(C)N(CCC(N)=O)C(N)=O | 173 to 174 |
| c1ccc2c(c1)Sc1ccccc1N2C1CN2CCC1CC2 (stereo unspecified) | 160 to 162 |
| COCCOC(=O)c1cc(-c2c(C(F)(F)F)nc(OC)[nH]c2=O)c(F)cc1Cl | 63 to 65 |
| O=C(Cl)c1cccc(Oc2ccc(S(=O)(=O)c3ccc(Oc4cccc(C(=O)Cl)c4)cc3)cc2)c1 | 113 to 116 |
| CCCOC[C@]1(OC)CC[C@H]2[C@@H]3CCC4=CC(=O)CCC4=C3[C@@H](c3ccc(C(C)=O)cc3)C[C@@]21C | 118 to 120 |
| O=S(CCCCCl)Cc1ccc(Cl)c(Cl)c1 (stereo unspecified) | 155 to 158 |
| O=C(O)Cc1ccc(NC(=O)C(CCc2ccccc2)NS(=O)(=O)c2ccc(Cl)cc2)cc1 (racemic) | 163 to 167 |
| COc1cc2nc3c(c(-c4cc(OC)c(O)c(OC)c4)c2cc1OC)C(=O)OC3 | 247 to 248 |
| CCOC(=O)C(=O)Nc1ccc(OC)cc1[N+](=O)[O-] | 151 |
| COC(=O)[C@@H](NC(=O)OCc1ccccc1)C(C)C | 54 to 56 |
| COc1nc(C)c(N2CCCn3c2nc2c(C#N)ccc(C(OC(F)F)C(F)(F)F)c23)c(C)n1 (stereo unspecified) | 250 to 252 |
| CC1(C)CCC(C)(C)c2cc(C(N)C(=O)Nc3ccc(C(=O)O)cc3)ccc21 (stereo unspecified) | 203 to 204 |
| Cn1nc(C(F)(F)F)cc1Oc1cccc(C(=O)NCC(F)(F)F)n1 | 136 |
| O=C(OCCOc1ccc(OCCO)cc1)c1ccc(O)c(Cl)c1 | 87 to 88 |
| CCc1ccc2c(c1)OC1(O)c3cccc([N+](=O)[O-])c3C(=O)C21O (stereo unspecified) | 110 to 120 |
| O=C(NCC12CC3CC(CC(C3)C1)C2)c1cc(-c2cccnc2N2CCC(C(=O)O)CC2)ccc1Cl | 110 to 115 |
| O=C(O)Cc1cc(F)cc(Cc2nc3c(F)c(F)cc(F)c3s2)c1 | 139 to 142 |
| CCCCOC(=O)c1ccc(-c2nc(C(Cl)(Cl)Cl)nc(C(Cl)(Cl)Cl)n2)cc1 | 109 to 110 |
| COc1cc(C=CC2=CC(=O)C(C)(C)O2)cc(OC)c1OC | 149 to 150 |
| O=C(O)c1cccc(NC(=O)C(CS)Cc2ccc(F)cc2)c1 (stereo unspecified) | 180 to 182 |
| Cn1nccc1CCS(=O)(=O)Cc1ccc(OCc2coc(C=Cc3ccc(C(F)(F)F)cc3)n2)cc1 | 204 |
| CCOC(=O)CC[C@H](NC(=O)c1ccc(NS(=O)(=O)c2cc3c(cc2Br)CCc2nc(N)[nH]c(=O)c2-3)cc1)C(=O)OCC | 175 |
| CC(=O)Nc1ccc(OCC(O)CCCl)cc1 (stereo unspecified) | 124 to 127 |
| CC(C)(C)c1cc(C(=O)Nc2nc(C(N)=O)c(CCN3CC4CCC(CC4)C3)s2)cc(C(C)(C)C)c1O | 275 to 276 |
| CSc1cc2c(cc1C(F)(F)F)N(C(=O)Nc1ccc(C(=O)NCCN(C)C)cc1)CC2 | 154 to 155 |
| Clc1ccc(C=NCCN=Cc2ccc(Cl)nc2)cn1 | 170 |
